Consider 30 compounds from a compilation of properties of binary mixtures.

“And” between values parts separate entries of the source, which are not always exact repeats. Equal entries are not always repeated.

A short description of the data set: xn = mol fraction of the nth substance listed.

Usually viscosity stands for the resistance of a fluid to flow. For `CCCC[N+]1(C)CCCC1.O=S(=O)([N-]S(=O)(=O)C(F)(F)F)C(F)(F)F` + OCCOCCOCCOCCO, the viscosity (298.15 K, 101 kPa, x2 = 0) came out at 70.5 mPa·s.
As for `CCCC[n+]1ccn(C)c1.[Br-]` + O, the viscosity (298.15 K, 100 kPa, x2 = 0.9487) is given as 2.21 mPa·s.
`CCCC[NH3+].O=[N+]([O-])[O-]` + O: the viscosity is, setting by setting: (303.15 K, 101 kPa, x2 = 0.3495) 22.35 mPa·s; (308.15 K, 101 kPa, x2 = 0.3495) 19.25 mPa·s; (313.15 K, 101 kPa, x2 = 0.3495) 16.75 mPa·s.
For orientation: speed of sound means how fast a sound wave travels through the sample. `CC[N+]1(C)CCCC1.[Br-]` + OCCO: the speed of sound is recorded as 1716 m/s (293.15 K, 100 kPa, x1 = 0.2); 1704 m/s (298.15 K, 100 kPa, x1 = 0.2); 1692 m/s (303.15 K, 100 kPa, x1 = 0.2); 1681 m/s (308.15 K, 100 kPa, x1 = 0.2); 1654 m/s (313.15 K, 100 kPa, x1 = 0.2).
As for `CCCC[n+]1ccn(C)c1.F[B-](F)(F)F` + O, the electrical conductivity (288.15 K, 100 kPa, x1 = 0.0001) worked out at 0.0392 S/m; the electrical conductivity (298.15 K, 100 kPa, x1 = 0.0001) is 0.0505 S/m and 0.036 S/m; the electrical conductivity (318.15 K, 100 kPa, x1 = 0.0001) is 0.0942 S/m and 0.0522 S/m.
In turn, `[Cl-].c1ccc(C[P+](c2ccccc2)(c2ccccc2)c2ccccc2)cc1` + OCCO yielded a viscosity (303.15 K, 100 kPa, x1 = 0.0833) of 69.7 mPa·s; a viscosity (313.15 K, 100 kPa, x1 = 0.0833) of 50.2 mPa·s; a viscosity (333.15 K, 100 kPa, x1 = 0.0833) of 31 mPa·s; a viscosity (353.15 K, 100 kPa, x1 = 0.0833) of 21.35 mPa·s.
For `CCCCCCCCCC[n+]1ccn(C)c1.[Cl-]` + O, under “298.15 K, 101.3 kPa, x1 = 0.0171”, the electrical conductivity stood at 3.25 S/m.
Under “298.15 K, 100 kPa, x2 = 0”, `CCCO` + C=CC[n+]1ccn(C)c1.O=S(=O)([N-]S(=O)(=O)C(F)(F)F)C(F)(F)F came in with a viscosity of 1.91 mPa·s.
With `CCOS(=O)(=O)[O-].CC[n+]1ccn(C)c1` + CN1CCCC1=O, the viscosity is 155.5 mPa·s (288.15 K, 100 kPa, x1 = 1); 80.25 mPa·s (293.15 K, 100 kPa, x1 = 0.8821); 27.95 mPa·s (298.15 K, 100 kPa, x1 = 0.596); 5.615 mPa·s (318.15 K, 100 kPa, x1 = 0.3021).
Under “293.15 K, 100 kPa, x1 = 0.5”, `Oc1cccnc1` + CCCC[n+]1ccn(C)c1.[Cl-] came in with a viscosity of 153.7 mPa·s.
Take `CCCC[n+]1ccn(C)c1.[Cl-]` + OCC(O)CO: the speed of sound (298.15 K, 101 kPa, x2 = 0.333) amounted to 1838.8 m/s; the speed of sound (303.15 K, 101 kPa, x2 = 0.333) is on record as 1826.5 m/s; the speed of sound (313.15 K, 101 kPa, x2 = 0.333) is given as 1802.4 m/s.
`CCn1cc[n+](C)c1.O=S(=O)([O-])C(F)(F)C(F)(F)C(F)(F)C(F)(F)F` + O: the viscosity by setting is: (298.15 K, 101.3 kPa, x1 = 0.0001) 1.038 mPa·s; (298.15 K, 101.3 kPa, x1 = 0.0005) 1.111 mPa·s; (298.15 K, 101.3 kPa, x1 = 0.0011) 1.091 mPa·s; (298.15 K, 101.3 kPa, x1 = 0.0018) 1.164 mPa·s; (298.15 K, 101.3 kPa, x1 = 0.0049) 1.367 mPa·s; (298.15 K, 101.3 kPa, x1 = 0.0109) 1.96 mPa·s. Also, the viscosity (298.15 K, 101.3 kPa, x2 = 0.9783) was found to be 3.03 mPa·s.
Take `CC[N+](CC)(CC)CC.[Cl-]` + Oc1ccccc1: the viscosity runs as follows: (303.15 K, 101 kPa, x1 = 0.333) 72.1 mPa·s; (313.15 K, 101 kPa, x1 = 0.2) 21.28 mPa·s; (313.15 K, 101 kPa, x1 = 0.25) 24.68 mPa·s; (313.15 K, 101 kPa, x1 = 0.333) 43 mPa·s; (323.15 K, 101 kPa, x1 = 0.25) 16.86 mPa·s; (323.15 K, 101 kPa, x1 = 0.333) 27.8 mPa·s.
`CC(O)C(=O)[O-].CN(C)CCOCC[NH+](C)C` + O had a viscosity (298.15 K, 100 kPa, x1 = 0.0172) of 1.2 mPa·s; a viscosity (298.15 K, 100 kPa, x1 = 0.0301) of 1.28 mPa·s; a viscosity (298.15 K, 100 kPa, x1 = 0.0456) of 1.76 mPa·s; a viscosity (298.15 K, 100 kPa, x1 = 0.0985) of 6.58 mPa·s.
Turning to `CCCCCC[n+]1ccn(C)c1.O=S(=O)([N-]S(=O)(=O)C(F)(F)F)C(F)(F)F` + Cc1ccccc1, the electrical conductivity (298.15 K, 100 kPa, x1 = 0.0811) amounted to 0.3 S/m; the electrical conductivity (298.15 K, 100 kPa, x1 = 0.1207) turned out to be 0.4 S/m; the electrical conductivity (298.15 K, 100 kPa, x1 = 0.1708) stood at 0.5 S/m; the electrical conductivity (298.15 K, 100 kPa, x1 = 0.236) stood at 0.6 S/m; the electrical conductivity (298.15 K, 100 kPa, x1 = 0.3246) is 0.6 S/m.
The compound `CCCCCC[n+]1ccn(C)c1.O=S(=O)([N-]S(=O)(=O)C(F)(F)F)C(F)(F)F` + O registered a viscosity (293.15 K, 101 kPa, x2 = 0.233) of 55 mPa·s.
As for `CCCC[P+](CCCC)(CCCC)CCCC.[Cl-]` + CCC(=O)O, the viscosity (298 K, 100 kPa, x1 = 0.5) is 140 mPa·s.
`CCCCCCCC[N+](C)(CCCCCCCC)CCCCCCCC.[Cl-]` + CCC(=O)O displayed a viscosity (298 K, 100 kPa, x1 = 0.5) of 650 mPa·s.
Turning to `O=C(O)CC(=O)O` + CC[n+]1ccn(C)c1.[Cl-], the viscosity by setting is: (313.15 K, 101.3 kPa, x2 = 0.667) 80.8 mPa·s; (323.15 K, 101.3 kPa, x2 = 0.667) 49.2 mPa·s; (333.15 K, 101.3 kPa, x2 = 0.667) 33.5 mPa·s; (343.15 K, 101.3 kPa, x2 = 0.667) 23.06 mPa·s; (353.15 K, 101.3 kPa, x2 = 0.667) 17.84 mPa·s.
Regarding `CCCC[N+]1(C)CCCCC1.O=S(=O)([N-]S(=O)(=O)C(F)(F)F)C(F)(F)F` + OCCOCCOCCOCCO, the viscosity by setting is: (298.15 K, 101 kPa, x2 = 0) 178.5 mPa·s; (298.15 K, 101 kPa, x2 = 0.5) 79.5 mPa·s.
For the compound `CC[N+]1(C)CCCC1.[Br-]` + OCCCCCCO, the speed of sound reads like this: (293.15 K, 101.3 kPa, x1 = 0.333) 1915.5 m/s; (298.15 K, 101.3 kPa, x1 = 0.333) 1903.4 m/s; (303.15 K, 101.3 kPa, x1 = 0.333) 1891.8 m/s; (308.15 K, 101.3 kPa, x1 = 0.333) 1879.3 m/s; (313.15 K, 101.3 kPa, x1 = 0.333) 1869.1 m/s.
The compound `CCCC[n+]1ccn(C)c1.F[P-](F)(F)(F)(F)F` + CC(C)=O gave an electrical conductivity (296.15 K, 101 kPa, x2 = 0.3522) of 0.84 S/m; an electrical conductivity (296.15 K, 101 kPa, x2 = 0.8801) of 3.91 S/m; an electrical conductivity (296.15 K, 101 kPa, x2 = 0.9514) of 2.99 S/m; an electrical conductivity (296.15 K, 101 kPa, x2 = 0.9778) of 1.73 S/m.
Turning to `CCCCCCCC(=O)[O-].CCCCCC[NH+](CCCCCC)CCCCCC` + O, the viscosity runs as follows: (298.15 K, 101 kPa, x1 = 0.3915) 15.42 mPa·s; (298.15 K, 101 kPa, x1 = 0.7748) 21.01 mPa·s.
For the compound `CC[n+]1ccn(C)c1.[Cl-]` + O, the viscosity runs as follows: (373 K, 100 kPa, x1 = 0.8) 20 mPa·s; (373 K, 100 kPa, x1 = 0.9524) 27 mPa·s.
`CCCCCCCCn1cc[n+](C)c1.O=S(=O)([N-]S(=O)(=O)C(F)(F)F)C(F)(F)F` + O: for the setting “293.15 K, 101 kPa, x2 = 0.205”, the viscosity was 75 mPa·s. This compound also showed an electrical conductivity (295.15 K, 101 kPa, x2 = 0.205) of 0.21 S/m.
Compound `CCCC[N+](CCCC)(CCCC)CCCC.[Cl-]` + OCC(O)CO displayed a viscosity (318.15 K, 100 kPa, x1 = 0.333) of 57.8 mPa·s.
Regarding `CCCC[n+]1ccn(C)c1.F[P-](F)(F)(F)(F)F` + CCCC[n+]1ccn(C)c1.O=S(=O)([N-]S(=O)(=O)C(F)(F)F)C(F)(F)F, the viscosity was found to be 36.48 mPa·s (313.15 K, 100 kPa, x1 = 0.25) and 73.2 mPa·s (313.15 K, 100 kPa, x1 = 0.75).
As to `CC[NH3+].O=[N+]([O-])[O-]` + CO, the viscosity runs as follows: (293.15 K, 101 kPa, x2 = 0) 44.9 mPa·s; (293.15 K, 101 kPa, x2 = 0.4) 13.8 mPa·s.
Regarding `CCCC[n+]1ccn(C)c1.O=S(=O)([N-]S(=O)(=O)C(F)(F)F)C(F)(F)F` + CO, the viscosity runs as follows: (298 K, 100 kPa, x1 = 0.1) 1.693 mPa·s; (298 K, 100 kPa, x1 = 0.3834) 8.225 mPa·s; (298 K, 100 kPa, x1 = 0.4974) 12.54 mPa·s; (298 K, 100 kPa, x1 = 0.5875) 16.78 mPa·s; (298 K, 100 kPa, x1 = 0.7988) 30.69 mPa·s; (298 K, 100 kPa, x1 = 0.8995) 38.93 mPa·s.
The compound `CCCCCC(=O)O` + CCCC[N+](CCCC)(CCCC)CCCC.[Cl-] gave a viscosity (298 K, 100 kPa, x2 = 0.5) of 320 mPa·s.
